Patent US9629893B2, “Agent derived from tortoise spleen stimulating mammalian hemopoiesis” (BMR Solutions Ltd., priority 2003, dated 2017)

Assays:
[1] = FTGN tetrapeptide stability (HPLC); format: physicochemical
Method: FIG. 6a: HPLC chromatogram of FTGN tetrapeptide reconstituted in water after storage at −10° C. for one year.
FIG. 6c: HPLC chromatogram of FTGN tetrapeptide reconstituted in serum and incubated at 37° C. during 4 hours.
Dry freeze long term storage of the FTGN oligopeptide preserved its structural (FIG. 6a) and biological activities. The dry frozen tetrapeptide conserved its physical characteristics after reconstitution in purified water or serum (FIG. 6c) and was stable after four hours of incubation at 37° C.

Bone marrow cells = assay: In vitro incubation of BM cells with FTGN, cloning in methylcellulose medium (myeloid colonies); format: cell-based, mice; details: 10 μg/ml, 2 hours; for number of colonies: vs no tetrapeptide
Method: FIG. 7a-c: FTGN tetrapeptide biological activity tested in vitro. BM cells were incubated in vitro in RPMI medium in the presence (10 μg/ml) or absence of FTGN tetrapeptide for 2 hours. Cells were washed and cloned in methylcellulose-containing medium.
Bone marrow cells from normal (non irradiated) mice (4-6×10^6 cells/ml) were incubated for 2 hours with 10 μg/ml tetrapeptide; the cells were washed and cloned in cytokine-supplemented methylcellulose semi-solid medium.
Myeloid colonies formed after two weeks were counted.

[2] = tested on: Whole body irradiated C57Bl/6J mice; assay: Ex vivo BMC treatment with FTGN, transplantation into whole body irradiated mice; format: in vivo
Method: Mice that were whole-body irradiated with a dose of 7.5 Gy (which is normally considered a lethal dose), were transplanted by intravenous injection with donor's bone marrow cells preincubated ex vivo with different concentrations of the synthetic tetrapeptide.
Bone marrow cells (BMC) were transplanted into mice by intravenous injection, usually 60,000 cells in 0.3 ml of PBS buffer after 2 hours incubation at 37° C. with the examined agent.
Mice spleen colonies (CFUs) were counted using the method of Till and McCulloch [Till J. E. and McCulloch E. A. Radiation Res. (1961) 14: 213] on 9th, 11th and 14th days after irradiation.
CFUc were assayed in semi-solid medium using 2×10^4 cells/plate.
Donor normal BMC (4-6×10^6 cells/nil) from C57 Bl/6J mice were incubated with different concentrations of FTGN tetrapeptide (0.05; 0.1; 0.5; 1.0; 10 and 50 μg/ml) for two hours. Whole body irradiated (7.0 Gy) C57Bl/6J mice were intravenously injected with 6×10^4 treated or control cells. The recovery of the hematopoietic system in the transplanted mice was evaluated from the 4th to the 30th day post-irradiation.

[3] = tested on: Whole body irradiated (7.0 Gy) C57Bl/6J mice; assay: Optimal FTGN ex vivo treatment concentration, normal or irradiated donor BMC transplanted into irradiated mice; format: in vivo
Method: Total body irradiated mice (7.0 Gy) were injected with 6×10^4 BMC previously treated with FTGN tetrapeptide at different concentrations (0.1, 0.5, 1.0, 10.0 and 50.0 μg/ml). Spleen colonies were measured 9 days after irradiation and compared to mice transplanted with BMC incubated only with PBS.
Total body irradiated mice (7.0 Gy) were injected with 6×10^4 BMC previously treated with FTGN tetrapeptide at different concentrations (0.1, 0.5, 1.0, 10.0 and 50.0 μg/ml). Bone marrow cells from femur were counted 4, 9 and 16 days after irradiation and compared to mice transplanted with BMC incubated only with PBS.
Donor BM cells incubated ex vivo in RPMI medium in the presence (10 μg/ml) or absence of FTGN tetrapeptide for 2 hours were transplanted into irradiated recipient mice (7.0 Gy.). Twenty days after transplant BMC/bone were counted.
In order to elucidate the optimal FTGN tetrapeptide treatment concentration needed to achieve maximum recovery of radiation damaged BMC, two sets of donor cells were examined. Donor BMC (4-6×10^6 cells/ml) from normal untreated C57 Bl/6J mice and from in vivo irradiated mice (4.5 Gy) collected 24 hours post-irradiation, were incubated for two hours with different concentrations of FTGN tetrapeptide (0.05; 0.1; 0.5; 1.0; 10 and 50 μg/ml). Whole body irradiated (7.0 Gy) C57Bl/6J mice were intravenously injected with 6×10^4 of each different donor treated cells or with control cells. The recovery of the hematopoietic system in the transplanted mice was evaluated from the 4th to the 30th day post-irradiation.

Irradiated mice (6.5 Gy) = assay: In vivo treatment of irradiated mice with FTGN; details: one or two intravenous 50 μg injections (2 or 2 and 24 hours post-irradiation), one month later
Method: Irradiated mice (6.5 Gy) were treated in vivo with the FTGN tetrapeptide. Thirty days after treatment BMC were counted.
Irradiated mice (6.5 Gy) were treated in vivo with the FTGN tetrapeptide. Thirty days after treatment CFU from BM were counted.
Irradiated mice (6.5 Gy) were treated with one or two intravenous 50 μg FTGN tetrapeptide injections (2 or 2 and 24 hours post-irradiation). BM nucleated cells count (FIG. 17) and CFUc (FIG. 18) were examined one month later.

[4] = tested on: Mice irradiated with a high lethal dose (10 Gy); assay: Survival of lethally irradiated mice (10 Gy) transplanted with BM cells treated with FTGN; format: in vivo; details: 6×10^4 cells incubated one hour with 10 μg/ml, 30 days post-transplant
Method: Lethally irradiated mice (10 Gy.) were transplanted with 60.000 donor BM cells previously incubated for 1 hour in the presence ([…]) or absence of FTGN tetrapeptide. Mice survival was pursue during 30 days and compared to control irradiated mice untreated or mice that were transplanted with untreated donor BMC.
Mice irradiated with a high lethal dose (10 Gy) were injected with 6×10^4 cells previously incubated for one hour with 10 μg/ml FTGN tetrapeptide. Mice survival was surveyed for a 30 days period post-transplant.

[5] = tested on: Whole body irradiated C57Bl/6J mice; assay: Ex vivo BMC treatment with FTGN, transplantation into whole body irradiated mice; format: in vivo; details: 7.5 Gy, treated vs untreated mice (summary)
[6] = side effects in patients; cited from earlier work
[7] = cited from earlier work
[8] = 7.5 Gy, treated vs untreated mice (summary)
[9] = 9th day, vs mice transplanted with non-treated cells

**Q.** With FTGN (listed as Testudo horsfieldi) as the molecule, how does the “structural and biological activities after dry freeze long term storage” value ([1]; dry freeze storage, −10° C. for one year, reconstituted in water) read?
**A.** Its value is “preserved”.

**Q.** What about the “stability after reconstitution in purified water or serum” value ([1]; four hours of incubation at 37° C.) of the same molecule?
**A.** Its value is “stable”.

**Q.** What about the myeloid colony number (Bone marrow cells; BM cells from normal (non irradiated) mice, colonies after two weeks) of the same molecule?
**A.** The myeloid colony number was “increased colony number”.

**Q.** What about the number of colonies (Bone marrow cells; ex vivo irradiated cells (4.5 Gy)) of the same molecule?
**A.** The number of colonies was “larger number of colonies”.

**Q.** What about the number of colonies (Bone marrow cells; in vivo irradiated cells (4.5 Gy)) of the same molecule?
**A.** The number of colonies was “larger number of colonies”.

**Q.** What about the spleen weight ([2]; 4th day after transplantation, vs control) of the same molecule?
**A.** The spleen weight was “No difference”.

**Q.** What about the “number of bone marrow cells (BMC)” value [2, 8] of the same molecule?
**A.** The value was “increased”.

**Q.** And the “number of white blood cells (WBC)” value [2, 8]?
**A.** The value was “increased”.

**Q.** And the spleen growth [2, 8]?
**A.** The spleen growth was “enhanced spleen growth”.

**Q.** And the spleen colonies number [2, 9]?
**A.** Its spleen colonies number is “augmented”.

**Q.** And the spleen weight [2, 9]?
**A.** The spleen weight was “augmented”.

**Q.** And the “peripheral blood white cells counts (WBC)” value ([2]; 16th day)?
**A.** Its value is “improved”.

**Q.** And the “total number of nucleated bone marrow cells per femur” value ([2]; 16th day)?
**A.** Its value is “doubled”.

**Q.** And the spleen weight ([2]; 16th day, relative to control group)?
**A.** The spleen weight was “lower”.

**Q.** What about the “colony-forming cells (CFUbm) in the bone marrow” value ([2]; semi-solid medium, 9th and 16th day) of the same molecule?
**A.** Its value is “improvement when low concentrations of the oligopeptide were used”.

**Q.** And the “ex vivo treatment dose giving the greatest number of nucleated cell in BM” value ([3]; 4, 9 and 16 days after irradiation, 0.05-50 μg/ml tested)?
**A.** Its value is 1 to 10 µg/mL.

**Q.** And the “ex vivo treatment dose giving the highest spleen colony forming units (CFUs) count” value ([3]; 9th day, 0.05-50 μg/ml tested)?
**A.** The value was 1 to 10 µg/mL.

**Q.** And the “BM repopulation activity after transplant” value ([3]; donor cells normal or from irradiated (4.5 Gy) mouse, 10 μg/ml, 2 hours)?
**A.** The value was “accelerated”.

**Q.** And the “BM repopulation (BM nucleated cells count and CFUc)” value (Irradiated mice (6.5 Gy))?
**A.** The value was “increased the BM repopulation”.

**Q.** And the survival [4]?
**A.** The survival was 100%.

**Q.** What about the “number of spleen colonies” value [5] of the same molecule?
**A.** Its value is “substantially enhanced”.

**Q.** What does the source list for `NCCCNCCSP(=O)(O)O` [amifostine]?
**A.** patients with nausea and vomiting [6]: approximately 53%; stability at room temperature once reconstituted [7]: quite limited
